The record followed here is patent publication US20240317723A1, “SUBSTITUTED AMINO AZA-HETEROARYL COMPOUNDS AS INHIBITORS OF THE HAEMATOPOIETIC PROGENITOR KINASE 1 (HPK1)” (priority 2021, published 2024).

Usually IC50 stands for the concentration at which inhibition is half-maximal.

One experiment has as its target Lck (h) (Homo sapiens, UniProt P06239). The experiment is described as follows: Lck Human STE Kinase Enzymatic Radiometric Assay. Format: biochemical. Conditions: for IC50: radiometric, [gamma-33P]-ATP, Cdc2 peptide substrate, read-out: Lck IC50, nM Range*. Here is the method:
(b) Lck Human STE Kinase Enzymatic Radiometric Assay
Lck (h) is incubated with 50 mM Tris pH 7.5, 0.1 mM EGTA, 0.1 mM Na3VO4, 250 uM KVEKIGEGTYGVVYK (Cdc2 peptide), 10 mM MgAcetate and [gamma-33P]-ATP (specific activity and concentration as required). The reaction is initiated by the addition of the Mg/ATP mix. After incubation for 40 minutes at room temperature, the reaction is stopped by the addition of phosphoric acid to a concentration of 0.5%. 10 uL of the reaction is then spotted onto a P30 filtermat and washed four times for 4 minutes in 0.425% phosphoric acid and once in methanol prior to drying and scintillation counting. For more details on the kinase assay procedures see: Gao, Y. et. al.; Biochem J., 451 (2): 313-328, 2013.
In some embodiments the presence of substituents on monocyclic Cy^2 rings or when Cy^2 is a bicyclic ring (unsubstituted or substituted) provides compounds with improved selectivity for inhibition of HPK1 vs Lck (see, for example, Table 3 and Table 4).

Experiment [1] deals with T1, Recombinant (1-346) HPK1 (h) (Homo sapiens, UniProt Q92918).
T1 construct: Recombinant (1-346) HPK1 (h) is incubated with 8 mM MOPS pH 7.0
T1 sequence (Q92918 1-346): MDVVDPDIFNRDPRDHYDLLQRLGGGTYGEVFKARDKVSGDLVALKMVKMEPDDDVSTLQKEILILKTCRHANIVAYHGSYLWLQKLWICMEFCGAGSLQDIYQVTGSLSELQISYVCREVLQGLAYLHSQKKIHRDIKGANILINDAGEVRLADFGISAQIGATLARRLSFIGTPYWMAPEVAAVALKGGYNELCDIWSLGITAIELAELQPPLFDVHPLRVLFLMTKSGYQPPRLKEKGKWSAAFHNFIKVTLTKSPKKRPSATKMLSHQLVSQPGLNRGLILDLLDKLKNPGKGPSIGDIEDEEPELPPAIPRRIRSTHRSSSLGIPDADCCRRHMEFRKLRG
The experiment is described as follows: HPK1 Human STE Kinase Enzymatic Radiometric Assay. In kind it is biochemical. Conditions: [gamma-33P]-ATP, myelin basic protein substrate, read-out: HPK1 IC50 nM Range*. On the procedure:
(a) HPK1 Human STE Kinase Enzymatic Radiometric Assay
A stock solution of 10 mM of test compound is prepared in DMSO. The compound plate was prepared by 3-fold and 9-point serial dilutions. Recombinant (1-346) HPK1 (h) is incubated with 8 mM MOPS pH 7.0, 0.2 mM EDTA, 0.33 mg/mL myelin basic protein, 10 mM MgAcetate and [gamma-33P]-ATP (specific activity and concentration as required). The reaction is initiated by the addition of the Mg/ATP mix. After incubation for 40 minutes at RT, the reaction is stopped by the addition of phosphoric acid to a concentration of 0.5%. 10 uL of the reaction is then spotted onto a P30 filtermat and washed four times for 4 minutes in 0.425% phosphoric acid and once in methanol prior to drying and scintillation counting. For more details of kinase assay protocols, see: Gao, Y. et. al.; Biochem J. 451 (2): 313-328, 2013.

Chain of Lck (h) (P06239 whole entry): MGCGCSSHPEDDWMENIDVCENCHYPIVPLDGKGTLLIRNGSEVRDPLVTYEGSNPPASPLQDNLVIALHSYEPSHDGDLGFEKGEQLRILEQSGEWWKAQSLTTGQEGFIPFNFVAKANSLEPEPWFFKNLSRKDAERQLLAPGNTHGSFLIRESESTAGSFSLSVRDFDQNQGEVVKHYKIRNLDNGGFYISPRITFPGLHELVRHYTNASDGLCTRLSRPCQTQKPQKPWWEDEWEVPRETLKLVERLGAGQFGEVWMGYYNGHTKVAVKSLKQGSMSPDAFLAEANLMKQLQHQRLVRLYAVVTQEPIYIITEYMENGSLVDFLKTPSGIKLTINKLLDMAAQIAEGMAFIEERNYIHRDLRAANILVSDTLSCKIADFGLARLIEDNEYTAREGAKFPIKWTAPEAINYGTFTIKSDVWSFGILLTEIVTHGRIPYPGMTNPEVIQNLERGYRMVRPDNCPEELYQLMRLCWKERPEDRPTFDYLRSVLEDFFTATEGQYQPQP

`Cc1[nH]c(=O)c2cc(F)c(-c3nc(-c4ccc(C5CCOCC5)c(CN(C)C)c4)cnc3N)cc2c1F` [II-6, 6-(3-amino-6-(3-((dimethylamino)methyl)-4-(tetrahydro-2H-pyran-4-yl)phenyl)pyrazin-2-yl)-4,7-difluoro-3-methylisoquinolin-1(2H)-one]: the IC50 fell in the range of 21 to 200 nM on Lck (h) and 0.1 to 5 nM in experiment [1].

`CC(C)N1C[C@H]2C[C@@]2(c2ccc(-c3cnc(N)c(-c4cc5c(cc4F)C(=O)NCC5)n3)cc2)C1` [Example I-46, 6-(3-amino-6-(4-((1R,5S)-3-isopropyl-3-azabicyclo[3.1.0]hexan-1-yl)phenyl)pyrazin-2-yl)-7-fluoro-3,4-dihydroisoquinolin-1(2H)-one]: the IC50 on Lck (h) was in the range of 11 to 20 nM; in experiment [1], 0.1 to 5 nM.

For the molecule `C[C@@H]1CCCCN1c1ccc(-c2cnc(N)c(-c3ccc4c(c3)CCNC4=O)n2)c(F)c1` [Example I-17, (R)-6-(3-amino-6-(2-fluoro-4-(2-methylpiperidin-1-yl)phenyl)pyrazin-2-yl)-3,4-dihydroisoquinolin-1(2H)-one], the results for the 50% inhibitory concentration (IC50) (on Lck (h); in experiment [1]) were 21 to 200 nM and 0.1 to 5 nM, respectively.

In the case of `C[C@@H]1COCCN1c1ccc(-c2cnc(N)c(-c3ccc4c(c3)CCNC4=O)n2)cc1` [Example I-11, (R)-6-(3-amino-6-(4-(3-methylmorpholino)phenyl)pyrazin-2-yl)-3,4-dihydroisoquinolin-1(2H)-one], the results for the half-inhibitory concentration (IC50) (at Lck (h); in experiment [1]) were 11 to 20 nM and 0.1 to 5 nM, respectively. This molecule also returned a Selectivity at Lck (h) (selectivity for inhibition of HPK1 vs Lck) of 170.

Take `Nc1ncc(-c2ccc(N3C[C@@H]4C[C@H]3CN4CC(F)(F)F)cc2)nc1-c1ccc2c(c1)CCNC2=O` [Example I-34, 6-(3-amino-6-(4-((1S,4S)-5-(2,2,2-trifluoroethyl)-2,5-diazabicyclo[2.2.1]heptan-2-yl)phenyl)pyrazin-2-yl)-3,4-dihydroisoquinolin-1(2H)-1-one]: the results for the half-maximal inhibitory concentration (IC50) (on Lck (h); in experiment [1]) were 11 to 20 nM and 0.1 to 5 nM, respectively.

As for `C[C@@H]1COCCN1c1ccc(-c2cnc(N)c(-c3ccc4c(c3)CCNC4=O)n2)c(F)c1` [Example I-22, (R)-6-(3-amino-6-(2-fluoro-4-(3-methylmorpholino)phenyl)pyrazin-2-yl)-3,4-dihydroisoquinolin-1(2H)-one], the values for the IC50 (on Lck (h); in experiment [1]) were 21 to 200 nM and 6 to 10 nM, respectively.

Turning to `CC(C)[C@H]1CN(c2ccc(-c3cnc(N)c(-c4cc5c(cc4F)C(=O)NCC5)n3)c(F)c2)CCO1` [Example I-30, (S)-6-(3-amino-6-(2-fluoro-4-(2-isopropylmorpholino)phenyl)pyrazin-2-yl)-7-fluoro-3,4-dihydroisoquinolin-1(2H)-one], the IC50 is 21 to 200 nM on Lck (h) and 0.1 to 5 nM in experiment [1].

Regarding `CC(C)[C@@H]1CN(c2ccc(-c3cnc(N)c(-c4ccc5c(c4)CCNC5=O)n3)c(F)c2)CCN1C` [Example I-39, (R)-6-(3-amino-6-(2-fluoro-4-(3-isopropyl-4-methylpiperazin-1-yl)phenyl)pyrazin-2-yl)-3,4-dihydroisoquinolin-1(2H)-one], the figures for the half-maximal inhibitory concentration (IC50) (at Lck (h); in experiment [1]) were 11 to 20 nM and 0.1 to 5 nM, respectively.

In the case of `CC(=O)N1CCN(c2ccc(-c3cnc(N)c(-c4ccc5c(c4)CCNC5=O)n3)cc2)CC1` [Example I-19, 6-(6-(4-(4-acetylpiperazin-1-yl)phenyl)-3-aminopyrazin-2-yl)-3,4-dihydroisoquinolin-1(2H)-one], the figures for the concentration for half-maximal inhibition (IC50) (at Lck (h); in experiment [1]) were 11 to 20 nM and 0.1 to 5 nM, respectively.

On to `CC(C)[C@@H]1CN(c2ccc(-c3cnc(N)c(-c4ccc5c(c4)CCNC5=O)n3)c(F)c2F)CCO1` [Example I-15, (R)-6-(3-amino-6-(2,3-difluoro-4-(2-isopropylmorpholino)phenyl)pyrazin-2-yl)-3,4-dihydroisoquinolin-1(2H)-one], for which the values for the 50% inhibitory concentration (IC50) (at Lck (h); in experiment [1]) were 21 to 200 nM and 0.1 to 5 nM, respectively.

For `CC(C)[C@H]1CN(c2ccc(-c3cnc(N)c(-c4cc5c(cc4F)C(=O)NCC5)n3)cc2)CCO1` [Example I-28, (S)-6-(3-amino-6-(4-(2-isopropylmorpholino)phenyl)pyrazin-2-yl)-7-fluoro-3,4-dihydroisoquinolin-1(2H)-one], the IC50 on Lck (h) was in the range of 11 to 20 nM; in experiment [1], 0.1 to 5 nM.

Take `Nc1ncc(-c2ccc(C3CCN(CC(F)(F)F)CC3)cc2)nc1-c1ccc2c(c1)CCNC2=O` [Example I-36, 6-(3-amino-6-(4-(1-(2,2,2-trifluoroethyl)piperidin-4-yl)phenyl)pyrazin-2-yl)-3,4-dihydroisoquinolin-1(2H)-one]: the results for the IC50 (at Lck (h); in experiment [1]) were 11 to 20 nM and 0.1 to 5 nM, respectively.

As to `CN1CCN(c2ccc(-c3cnc(N)c(-c4cc(F)c5c(c4)CCNC5=O)n3)cc2)CC1` [Example I-5, 6-(3-amino-6-(4-(4-methylpiperazin-1-yl)phenyl)pyrazin-2-yl)-8-fluoro-3,4-dihydroisoquinolin-1(2H)-one], the IC50 on Lck (h) fell in the range of 6 to 10 nM; in experiment [1] it was 0.1 to 5 nM.

As to `Nc1ncc(-c2ccc(N3CCN(CC(F)(F)F)CC3)cc2)nc1-c1ccc2c(c1)CCNC2=O` [Example I-35, 6-(3-amino-6-(4-(4-(2,2,2-trifluoroethyl)piperazin-1-yl)phenyl)pyrazin-2-yl)-3,4-dihydroisoquinolin-1(2H)-one], the results for the IC50 (at Lck (h); in experiment [1]) were 11 to 20 nM and 0.1 to 5 nM, respectively.

Turning to `CC(C)N1CCN(c2ccc(-c3cnc(N)c(-c4ccc5c(c4)CCNC5=O)n3)cc2)CC1` [Example I-3, 6-(3-amino-6-(4-(4-isopropylpiperazin-1-yl)phenyl)pyrazin-2-yl)-3,4-dihydroisoquinolin-1(2H)-one], the 50% inhibitory concentration (IC50) on Lck (h) lay within 6 to 10 nM; in experiment [1], 0.1 to 5 nM.

Regarding `CN1C[C@H]2C[C@@]2(c2ccc(-c3cnc(N)c(-c4cc5c(cc4F)C(=O)NCC5)n3)cc2)C1` [Example I-45, 6-(3-amino-6-(4-((1R,5S)-3-methyl-3-azabicyclo[3.1.0]hexan-1-yl)phenyl)pyrazin-2-yl)-7-fluoro-3,4-dihydroisoquinolin-1(2H)-one], the IC50 was 11 to 20 nM on Lck (h) and 0.1 to 5 nM in experiment [1].

Take `CN1CCN(c2ccc(-c3cnc(N)c(-c4ccc5c(c4)CCNC5=O)n3)cc2)CC1` [Example I-1, 6-(3-amino-6-(4-(4-methylpiperazin-1-yl)phenyl)pyrazin-2-yl)-3,4-dihydroisoquinolin-1(2H)-one]: the figures for the 50% inhibitory concentration (IC50) (at Lck (h); in experiment [1]) were 6 to 10 nM and 0.1 to 5 nM, respectively.

Turning to `CC(C)[C@@H]1CN(c2ccc(-c3cnc(N)c(-c4cc5c(cc4F)C(=O)NCC5)n3)c(F)c2)CCO1` [Example I-29, (R)-6-(3-amino-6-(2-fluoro-4-(2-isopropylmorpholino)phenyl)pyrazin-2-yl)-7-fluoro-3,4-dihydroisoquinolin-1(2H)-one], the IC50 at Lck (h) fell in the range of 21 to 200 nM; in experiment [1], 0.1 to 5 nM.

Turning to `Cc1nc2cc(-c3nc(-c4ccc(C5CCOCC5)c(CN(C)C)c4)cnc3N)ccc2c(=O)[nH]1` [II-3, 7-(3-amino-6-(3-((dimethylamino)methyl)-4-(tetrahydro-2H-pyran-4-yl)phenyl)pyrazin-2-yl)-2-methylquinazolin-4(3H)-one], the concentration for half-maximal inhibition (IC50) was 21 to 200 nM on Lck (h) and 0.1 to 5 nM in experiment [1].

For the molecule `Nc1ncc(-c2ccc([C@@]34C[C@@H]3CN(CCF)C4)cc2)nc1-c1ccc2c(c1)CCNC2=O` [Example I-37, 6-(3-amino-6-(4-((1R,5S)-3-(2-fluoroethyl)-3-azabicyclo[3.1.0]hexan-1-yl)phenyl)pyrazin-2-yl)-3,4-dihydroisoquinolin-1(2H)-one], the 50% inhibitory concentration (IC50) at Lck (h) lay in the range of 6 to 10 nM; in experiment [1] it was 0.1 to 5 nM.

`CN(C)C1CCN(c2ccc(-c3cnc(N)c(-c4ccc5c(c4)CCNC5=O)n3)c(F)c2)C1` (stereo not shown) [Example I-20, 6-(3-amino-6-(4-(3-(dimethylamino)pyrrolidin-1-yl)-2-fluorophenyl)pyrazin-2-yl)-3,4-dihydroisoquinolin-1(2H)-one]: the IC50 at Lck (h) is 11 to 20 nM; in experiment [1], 0.1 to 5 nM.
